Data reported in ChEMBL document CHEMBL3627608, “Crystal structures of human RIP2 kinase catalytic domain complexed with ATP-competitive inhibitors: Foundations for understanding inhibitor selectivity” (Bioorg Med Chem, 2015).

Key:
[1] = biological target: T1, Myotonin-protein kinase (Homo sapiens) (UniProt Q09013); assay: Inhibition of DMPK (unknown origin) at 10 uM after 120 mins P33 radiolabeled kinase activity assay
T1 sequence (whole entry): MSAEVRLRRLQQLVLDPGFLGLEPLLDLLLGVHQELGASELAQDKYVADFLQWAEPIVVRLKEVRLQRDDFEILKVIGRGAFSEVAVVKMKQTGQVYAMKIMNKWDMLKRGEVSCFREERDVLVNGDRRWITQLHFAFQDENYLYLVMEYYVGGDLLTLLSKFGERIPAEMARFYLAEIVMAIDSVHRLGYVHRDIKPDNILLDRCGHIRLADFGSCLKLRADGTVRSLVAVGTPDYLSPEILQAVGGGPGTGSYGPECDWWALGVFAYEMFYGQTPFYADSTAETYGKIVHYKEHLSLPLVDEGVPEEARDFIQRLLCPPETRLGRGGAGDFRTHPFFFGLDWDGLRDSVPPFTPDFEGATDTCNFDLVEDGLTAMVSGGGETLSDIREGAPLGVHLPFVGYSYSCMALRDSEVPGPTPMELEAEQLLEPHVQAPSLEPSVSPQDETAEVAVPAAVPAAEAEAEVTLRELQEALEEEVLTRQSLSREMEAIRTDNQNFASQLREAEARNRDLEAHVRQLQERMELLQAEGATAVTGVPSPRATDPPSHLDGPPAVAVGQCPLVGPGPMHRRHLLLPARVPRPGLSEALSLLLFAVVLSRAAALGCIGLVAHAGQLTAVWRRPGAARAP

[2] = biological target: T2, Ephrin type-A receptor 1 (Homo sapiens) (UniProt P21709); assay: Inhibition of EPHA1 (unknown origin) at 10 uM after 120 mins P33 radiolabeled kinase activity assay
T2 sequence (whole entry): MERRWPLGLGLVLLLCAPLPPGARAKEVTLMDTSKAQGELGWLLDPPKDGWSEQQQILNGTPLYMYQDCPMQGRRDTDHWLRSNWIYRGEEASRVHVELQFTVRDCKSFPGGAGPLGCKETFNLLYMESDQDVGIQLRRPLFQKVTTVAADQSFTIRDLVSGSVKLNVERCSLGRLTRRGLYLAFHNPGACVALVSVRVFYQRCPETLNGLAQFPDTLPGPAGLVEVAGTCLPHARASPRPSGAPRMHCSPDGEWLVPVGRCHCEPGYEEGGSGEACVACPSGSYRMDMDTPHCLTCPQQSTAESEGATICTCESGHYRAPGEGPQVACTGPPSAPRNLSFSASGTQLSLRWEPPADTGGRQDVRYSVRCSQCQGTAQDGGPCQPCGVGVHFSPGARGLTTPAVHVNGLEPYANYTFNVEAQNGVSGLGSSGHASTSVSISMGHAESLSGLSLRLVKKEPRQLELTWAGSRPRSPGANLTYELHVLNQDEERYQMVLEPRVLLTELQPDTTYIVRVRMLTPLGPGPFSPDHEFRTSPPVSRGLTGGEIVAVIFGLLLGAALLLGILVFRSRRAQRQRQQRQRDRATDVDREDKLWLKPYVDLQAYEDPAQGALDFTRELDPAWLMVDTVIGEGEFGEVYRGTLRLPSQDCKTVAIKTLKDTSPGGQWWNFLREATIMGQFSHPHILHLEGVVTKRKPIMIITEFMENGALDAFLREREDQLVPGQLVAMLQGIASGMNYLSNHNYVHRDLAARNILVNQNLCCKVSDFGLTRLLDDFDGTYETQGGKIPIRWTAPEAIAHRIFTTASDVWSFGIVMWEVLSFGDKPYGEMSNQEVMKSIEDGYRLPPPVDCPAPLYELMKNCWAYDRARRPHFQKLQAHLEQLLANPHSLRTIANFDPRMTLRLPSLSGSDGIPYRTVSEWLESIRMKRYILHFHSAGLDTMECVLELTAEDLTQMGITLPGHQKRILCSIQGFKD

Homo sapiens = organism: Homo sapiens; assay: Inhibition of PKG1beta (unknown origin) at 10 uM after 120 mins P33 radiolabeled kinase activity assay
[3] = biological target: Macrophage-stimulating protein receptor (Homo sapiens) (UniProt Q04912); assay: Inhibition of RON (unknown origin) at 10 uM after 120 mins P33 radiolabeled kinase activity assay
[4] = biological target: MAP kinase-interacting serine/threonine-protein kinase 2 (Homo sapiens) (UniProt Q9HBH9); assay: Inhibition of MNK2 (unknown origin) at 10 uM after 120 mins P33 radiolabeled kinase activity assay
[5] = biological target: Serine/threonine-protein kinase SIK1 (Homo sapiens) (UniProt P57059); assay: Inhibition of SIK1 (unknown origin) at 10 uM after 120 mins P33 radiolabeled kinase activity assay
[6] = biological target: SRSF protein kinase 2 (Homo sapiens) (UniProt P78362); assay: Inhibition of SRPK2 (unknown origin) at 10 uM after 120 mins P33 radiolabeled kinase activity assay
[7] = biological target: Serine/threonine-protein kinase 32B (Homo sapiens) (UniProt Q9NY57); assay: Inhibition of STK32B (unknown origin) at 10 uM after 120 mins P33 radiolabeled kinase activity assay
[8] = biological target: Tyrosine-protein kinase ABL1 (Homo sapiens) (UniProt P00519); assay: Inhibition of ABL1 (unknown origin) at 10 uM after 120 mins P33 radiolabeled kinase activity assay
[9] = biological target: T3, Activin receptor type-1 (Homo sapiens) (UniProt Q04771); assay: Inhibition of ALK2 (unknown origin) at 10 uM after 120 mins P33 radiolabeled kinase activity assay
T3 sequence (whole entry): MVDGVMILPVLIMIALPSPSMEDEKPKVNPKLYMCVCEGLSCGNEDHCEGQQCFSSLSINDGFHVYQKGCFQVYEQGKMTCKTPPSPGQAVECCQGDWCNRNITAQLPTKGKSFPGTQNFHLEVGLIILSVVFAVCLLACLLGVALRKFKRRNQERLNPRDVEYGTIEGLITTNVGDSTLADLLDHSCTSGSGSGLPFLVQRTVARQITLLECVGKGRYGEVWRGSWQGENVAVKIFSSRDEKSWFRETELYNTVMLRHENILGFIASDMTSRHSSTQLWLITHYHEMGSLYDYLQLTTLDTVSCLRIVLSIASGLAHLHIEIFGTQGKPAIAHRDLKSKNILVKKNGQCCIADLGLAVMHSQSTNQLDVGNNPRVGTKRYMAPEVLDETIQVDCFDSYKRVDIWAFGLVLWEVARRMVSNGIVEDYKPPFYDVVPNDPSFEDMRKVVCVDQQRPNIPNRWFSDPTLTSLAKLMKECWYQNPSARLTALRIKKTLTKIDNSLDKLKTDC

[10] = biological target: Aurora kinase B (Homo sapiens) (UniProt Q96GD4); assay: Inhibition of Aurora B (unknown origin) at 10 uM after 120 mins P33 radiolabeled kinase activity assay
[11] = biological target: Protein-tyrosine kinase 6 (Homo sapiens) (UniProt Q13882); assay: Inhibition of BRK (unknown origin) at 10 uM after 120 mins P33 radiolabeled kinase activity assay
[12] = biological target: CDK3/Cyclin E (Homo sapiens) (UniProt P24864+Q00526); assay: Inhibition of CDK3/cyclin E (unknown origin) at 10 uM after 120 mins P33 radiolabeled kinase activity assay; assay type: protein-complex assay
Chain of CDK3/Cyclin E (Homo sapiens) (P24864 whole entry, looked up): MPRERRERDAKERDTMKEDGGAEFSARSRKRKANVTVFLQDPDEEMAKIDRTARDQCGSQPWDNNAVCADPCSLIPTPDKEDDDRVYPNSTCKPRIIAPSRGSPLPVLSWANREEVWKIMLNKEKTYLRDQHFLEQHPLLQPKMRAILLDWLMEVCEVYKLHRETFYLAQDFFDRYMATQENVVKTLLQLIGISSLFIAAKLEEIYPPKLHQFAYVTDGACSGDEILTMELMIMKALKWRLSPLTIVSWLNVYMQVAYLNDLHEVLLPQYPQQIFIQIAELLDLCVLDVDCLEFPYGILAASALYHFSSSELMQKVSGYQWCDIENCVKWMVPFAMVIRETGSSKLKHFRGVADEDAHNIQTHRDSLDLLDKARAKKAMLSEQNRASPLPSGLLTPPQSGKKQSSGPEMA
Chain of CDK3/Cyclin E (Homo sapiens) (Q00526 whole entry, looked up): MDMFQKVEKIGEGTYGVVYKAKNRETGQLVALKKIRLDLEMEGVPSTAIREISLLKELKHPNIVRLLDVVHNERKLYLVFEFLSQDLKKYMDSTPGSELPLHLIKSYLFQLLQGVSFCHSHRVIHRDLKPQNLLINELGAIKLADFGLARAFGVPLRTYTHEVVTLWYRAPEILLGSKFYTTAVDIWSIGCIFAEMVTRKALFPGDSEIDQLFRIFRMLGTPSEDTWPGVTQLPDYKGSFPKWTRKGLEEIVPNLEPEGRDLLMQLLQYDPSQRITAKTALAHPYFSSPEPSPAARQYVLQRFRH

Chain of Serine/threonine-protein kinase 32B (Homo sapiens) (Q9NY57 whole entry): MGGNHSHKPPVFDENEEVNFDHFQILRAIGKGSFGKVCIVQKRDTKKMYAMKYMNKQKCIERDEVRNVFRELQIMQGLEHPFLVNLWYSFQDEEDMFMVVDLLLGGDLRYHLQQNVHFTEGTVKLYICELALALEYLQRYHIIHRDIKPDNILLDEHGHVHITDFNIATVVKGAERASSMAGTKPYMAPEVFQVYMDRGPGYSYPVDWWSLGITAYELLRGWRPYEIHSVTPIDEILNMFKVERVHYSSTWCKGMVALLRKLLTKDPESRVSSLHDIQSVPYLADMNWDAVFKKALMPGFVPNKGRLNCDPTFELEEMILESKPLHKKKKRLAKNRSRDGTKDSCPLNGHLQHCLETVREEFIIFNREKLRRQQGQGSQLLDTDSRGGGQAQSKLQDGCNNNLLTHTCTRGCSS
Chain of Aurora kinase B (Homo sapiens) (Q96GD4 whole entry): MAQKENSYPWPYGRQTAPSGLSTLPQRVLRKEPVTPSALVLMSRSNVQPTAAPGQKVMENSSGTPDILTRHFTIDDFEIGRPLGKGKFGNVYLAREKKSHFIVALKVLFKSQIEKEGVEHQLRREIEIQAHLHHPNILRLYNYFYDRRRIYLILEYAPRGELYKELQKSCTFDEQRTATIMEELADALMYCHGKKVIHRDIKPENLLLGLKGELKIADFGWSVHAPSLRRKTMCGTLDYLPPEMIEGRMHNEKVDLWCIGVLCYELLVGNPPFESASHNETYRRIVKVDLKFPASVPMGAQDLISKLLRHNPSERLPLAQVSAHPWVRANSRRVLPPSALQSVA
Chain of SRSF protein kinase 2 (Homo sapiens) (P78362 whole entry, looked up): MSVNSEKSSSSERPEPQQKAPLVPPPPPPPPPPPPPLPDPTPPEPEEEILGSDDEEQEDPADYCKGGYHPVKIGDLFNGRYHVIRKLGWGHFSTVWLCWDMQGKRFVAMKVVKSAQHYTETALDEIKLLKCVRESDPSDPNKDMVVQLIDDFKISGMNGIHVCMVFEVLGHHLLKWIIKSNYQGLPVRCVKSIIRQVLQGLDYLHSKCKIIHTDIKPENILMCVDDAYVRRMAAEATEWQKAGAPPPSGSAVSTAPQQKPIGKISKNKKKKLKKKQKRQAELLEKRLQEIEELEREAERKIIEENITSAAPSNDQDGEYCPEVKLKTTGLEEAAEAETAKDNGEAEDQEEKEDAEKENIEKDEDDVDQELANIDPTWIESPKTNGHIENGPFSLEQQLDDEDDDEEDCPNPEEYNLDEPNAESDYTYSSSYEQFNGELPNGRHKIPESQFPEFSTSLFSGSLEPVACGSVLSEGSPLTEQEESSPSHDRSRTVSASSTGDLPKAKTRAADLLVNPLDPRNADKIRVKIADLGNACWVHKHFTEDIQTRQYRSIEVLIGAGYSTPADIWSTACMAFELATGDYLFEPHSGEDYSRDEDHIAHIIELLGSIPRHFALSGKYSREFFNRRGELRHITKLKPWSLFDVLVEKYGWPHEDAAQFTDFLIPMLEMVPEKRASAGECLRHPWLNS
Chain of Tyrosine-protein kinase ABL1 (Homo sapiens) (P00519 whole entry): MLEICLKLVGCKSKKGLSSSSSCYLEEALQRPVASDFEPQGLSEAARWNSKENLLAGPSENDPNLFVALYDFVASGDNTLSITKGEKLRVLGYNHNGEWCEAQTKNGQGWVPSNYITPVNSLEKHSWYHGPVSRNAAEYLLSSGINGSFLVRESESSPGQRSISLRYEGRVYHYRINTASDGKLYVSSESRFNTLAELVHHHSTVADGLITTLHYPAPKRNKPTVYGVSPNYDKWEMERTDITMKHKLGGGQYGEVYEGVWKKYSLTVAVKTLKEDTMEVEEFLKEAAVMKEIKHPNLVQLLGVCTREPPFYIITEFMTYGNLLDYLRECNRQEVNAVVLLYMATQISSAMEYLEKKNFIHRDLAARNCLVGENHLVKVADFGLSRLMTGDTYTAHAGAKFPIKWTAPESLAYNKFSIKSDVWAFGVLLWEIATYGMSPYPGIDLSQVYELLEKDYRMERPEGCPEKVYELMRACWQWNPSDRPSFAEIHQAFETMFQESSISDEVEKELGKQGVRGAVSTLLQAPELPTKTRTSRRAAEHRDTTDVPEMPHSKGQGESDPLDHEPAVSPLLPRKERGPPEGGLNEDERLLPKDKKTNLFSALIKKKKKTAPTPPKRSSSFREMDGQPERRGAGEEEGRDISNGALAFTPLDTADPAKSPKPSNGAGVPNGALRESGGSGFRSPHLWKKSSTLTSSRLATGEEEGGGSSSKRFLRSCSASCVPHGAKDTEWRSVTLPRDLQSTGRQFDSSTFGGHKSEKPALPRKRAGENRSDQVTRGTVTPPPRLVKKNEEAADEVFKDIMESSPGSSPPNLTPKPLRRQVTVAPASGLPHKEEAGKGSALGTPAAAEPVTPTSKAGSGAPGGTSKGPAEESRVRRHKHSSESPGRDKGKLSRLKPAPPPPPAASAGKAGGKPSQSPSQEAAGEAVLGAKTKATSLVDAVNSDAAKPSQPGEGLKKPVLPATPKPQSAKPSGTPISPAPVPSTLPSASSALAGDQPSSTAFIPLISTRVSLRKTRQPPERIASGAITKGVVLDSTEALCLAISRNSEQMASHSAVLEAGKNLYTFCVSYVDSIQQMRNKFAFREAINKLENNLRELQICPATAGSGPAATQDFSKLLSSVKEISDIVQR
Chain of Macrophage-stimulating protein receptor (Homo sapiens) (Q04912 25-304 limits assumed): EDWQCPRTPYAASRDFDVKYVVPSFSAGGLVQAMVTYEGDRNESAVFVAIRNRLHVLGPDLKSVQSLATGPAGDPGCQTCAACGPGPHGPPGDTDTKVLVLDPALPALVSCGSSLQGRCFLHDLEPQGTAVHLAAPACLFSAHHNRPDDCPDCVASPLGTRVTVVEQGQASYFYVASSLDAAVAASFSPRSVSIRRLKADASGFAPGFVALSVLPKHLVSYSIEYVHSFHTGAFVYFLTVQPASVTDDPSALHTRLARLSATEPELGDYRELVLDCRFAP
Chain of Macrophage-stimulating protein receptor (Homo sapiens) (Q04912 310-1400 limits assumed): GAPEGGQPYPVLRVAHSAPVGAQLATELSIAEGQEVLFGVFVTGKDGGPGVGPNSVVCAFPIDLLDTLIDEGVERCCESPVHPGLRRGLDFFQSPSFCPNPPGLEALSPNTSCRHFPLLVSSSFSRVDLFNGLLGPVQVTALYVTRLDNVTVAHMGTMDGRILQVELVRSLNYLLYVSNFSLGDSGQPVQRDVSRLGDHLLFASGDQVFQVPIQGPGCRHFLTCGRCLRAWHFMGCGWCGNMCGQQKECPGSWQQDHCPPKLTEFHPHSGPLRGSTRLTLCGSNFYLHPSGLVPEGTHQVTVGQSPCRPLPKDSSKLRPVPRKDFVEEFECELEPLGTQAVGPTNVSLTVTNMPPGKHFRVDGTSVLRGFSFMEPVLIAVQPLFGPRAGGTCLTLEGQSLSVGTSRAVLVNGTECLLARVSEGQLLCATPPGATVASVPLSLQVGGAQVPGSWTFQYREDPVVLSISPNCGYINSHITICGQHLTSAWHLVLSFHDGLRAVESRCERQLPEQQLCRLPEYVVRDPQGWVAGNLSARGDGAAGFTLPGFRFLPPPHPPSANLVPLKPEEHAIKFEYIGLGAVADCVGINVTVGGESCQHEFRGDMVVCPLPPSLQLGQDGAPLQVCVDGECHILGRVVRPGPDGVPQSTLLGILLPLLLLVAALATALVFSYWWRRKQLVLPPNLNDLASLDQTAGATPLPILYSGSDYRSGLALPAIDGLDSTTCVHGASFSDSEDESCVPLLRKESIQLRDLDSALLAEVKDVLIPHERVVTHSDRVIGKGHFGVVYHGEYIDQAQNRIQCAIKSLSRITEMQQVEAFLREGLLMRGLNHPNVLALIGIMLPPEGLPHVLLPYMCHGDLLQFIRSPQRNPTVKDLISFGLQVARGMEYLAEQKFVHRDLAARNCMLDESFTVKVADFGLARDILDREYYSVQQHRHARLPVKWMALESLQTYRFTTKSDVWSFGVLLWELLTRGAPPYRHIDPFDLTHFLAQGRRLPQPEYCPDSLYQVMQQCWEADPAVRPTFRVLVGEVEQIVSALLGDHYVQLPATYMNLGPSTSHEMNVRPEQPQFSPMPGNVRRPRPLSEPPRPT

Row | SMILES | inhibition [1] | inhibition [2] | inhibition (Homo sapiens) | inhibition [3] | inhibition [4] | inhibition [5] | inhibition [6] | inhibition [7] | inhibition [8] | inhibition [9] | inhibition [10] | inhibition [11] | inhibition [12]
1 | CS(=O)(=O)c1cccc(Nc2nccc(-c3sc(N4CCOCC4)nc3-c3cccc(NS(=O)(=O)c4c(F)cccc4F)c3)n2)c1 | -2.69% | 91.4% | 2.75% | 18.7% | 81.5% | 101% | 17.7% | 24.6% | 98.1% | 85.2% | 82.1% | 100% | 60%
2 | COCCNC(=O)c1ccc2c(c1)nc(-c1cnc(-c3ccc(Cl)cc3)[nH]1)n2CCOC | -6.45% | 16.6% | -4.49% | 1.69% | 2.19% | 34.4% | 7.04% | -6.19% | 65.6% | 10.4% | 6.36% | 84.4% | 0.29%
3 | CC(C)(C)c1cc(NC(=O)Nc2ccc(Oc3ccncc3)cc2)no1 | -2.09% | 86.2% | 15.2% | 70.6% | 99.2% | 22.6% | 18% | 9.05% | 88.4% | -3.19% | 49.2% | 95.7% | 49.5%
